Assay results: patent US11602534B2, “Pyrimidine derivative kinase inhibitors” (HEFEI INSTITUTES OF PHYSICAL SCIENCE, CHINESE ACADEMY OF …, priority 2017, dated 2023)
Where a name gives a salt, the structure may show the parent alone.

Key:
P210/T315I-BaF3 = assay: Proliferation of P210/T315I-BaF3 cells, CCK8 cell viability assay; format: cell-based; conditions: Mus musculus, 72 hours, stably expressing BCR-ABL/T315I
Procedure, shortened: (§1)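 Murine BaF3 cells made IL-3-independent by retroviral transduction of human kinase domains fused to N-terminal TEL or TPR fragments; parental BaF3 included. Living cells quantified by CCK8 (dehydrogenase activity) read-out, giving GI50 in μM.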

Tel-cKit-BaF3 = assay: Proliferation of Tel-cKit-BaF3 cells, CCK8 cell viability assay; format: cell-based, mouse; conditions: Mus musculus; 72 hours, CCK8; stably expressing cKIT kinase
Procedure, shortened: (§2)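 Human kinase-region sequences were PCR-amplified, fused behind N-terminal TEL in MSCV-Puro and stably introduced into mouse BaF3 by retrovirus. IL-3 was then removed to give kinase-dependent lines. Compound effects on these and on parental BaF3 are scored as GI50 (μM) via CCK8 viable-cell quantification.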

Tel-RET-BaF3 = assay: Proliferation of Tel-RET-BaF3 cells, CCK8 cell viability assay; format: cell-based; conditions: Mus musculus, 72 hours, stably expressing RET kinase
Tel-FLT3-BaF3 = assay: Proliferation of Tel-FLT3-BaF3 cells, CCK8 cell viability assay; format: cell-based; conditions: Mus musculus, 72 hours, stably expressing FLT3 kinase
Procedure, shortened: as §1

TEL-PDGFRα-BaF3 = assay: Proliferation of TEL-PDGFRα-BaF3 cells, CCK8 cell viability assay; format: cell-based; conditions: Mus musculus, 72 hours, stably expressing PDGFRα kinase
Procedure, shortened: as §2

BaF3 = assay: Proliferation of BaF3 cells, CCK8 cell viability assay; format: cell-based; conditions: Mus musculus, 72 hours
Procedure, shortened: as §1

Tel-cKit/T670I-BaF3 = assay: Proliferation of Tel-cKit/T670I-BaF3 cells, CCK8 cell viability assay; format: cell-based; conditions: Mus musculus, 72 hours, stably expressing cKIT/T670I
Procedure, shortened: as §2

TEL-PDGFRβ-BaF3 = assay: Proliferation of TEL-PDGFRβ-BaF3 cells, CCK8 cell viability assay; format: cell-based; conditions: Mus musculus, 72 hours, stably expressing PDGFRβ kinase
Procedure, shortened: as §2

FLT3-ITD-BaF3 = assay: Proliferation of FLT3-ITD-BaF3 cells, CCK8 cell viability assay; format: cell-based; conditions: Mus musculus, 72 hours, stably expressing FLT3/ITD
Procedure, shortened: as §1

P210-BaF3 = assay: Proliferation of P210-BaF3 cells, CCK8 cell viability assay; format: cell-based; conditions: Mus musculus, 72 hours, stably expressing BCR-ABL mutant activated kinase
Procedure, shortened: as §1

TEL-VEGFR2-BaF3 = assay: Proliferation of TEL-VEGFR2-BaF3 cells, CCK8 cell viability assay; format: cell-based; conditions: Mus musculus, 72 hours, stably expressing VEGFR2 kinase
Procedure, shortened: as §1

Compound | GI50 (P210/T315I-BaF3) [µM] | GI50 (Tel-cKit-BaF3) [µM] | GI50 (Tel-RET-BaF3) [µM] | GI50 (Tel-FLT3-BaF3) [µM] | GI50 (TEL-PDGFRα-BaF3) [µM] | GI50 (BaF3) [µM] | GI50 (Tel-cKit/T670I-BaF3) [µM] | GI50 (TEL-PDGFRβ-BaF3) [µM] | GI50 (FLT3-ITD-BaF3) [µM] | GI50 (P210-BaF3) [µM] | GI50 (TEL-VEGFR2-BaF3) [µM]
COCCNc1cc(O[C@H]2CC[C@H](NC(=O)Nc3ccc(C)c(C(F)(F)F)c3)CC2)ncn1 [Example 43, 1-((1R,4R)-4-((6-((2-methoxyethyl)amino)pyrimidin-4-yl)oxy)cyclohexyl)-3-(4-methyl-3-(trifluoromethyl)phenyl)urea] | 5.21 | 5.3 | 3.4 | 0.305 | 0.023 | > 10 | 1.12 | 0.252 | 0.199 | 6.96 | 2.6
Cc1ccc(NC(=O)N[C@H]2CC[C@H](Oc3cc(NCCN)ncn3)CC2)cc1C(F)(F)F [Example 46, 1-((1R,4R)-4-((6-((2-aminoethyl)amino)pyrimidin-4-yl)oxy)cyclohexyl)-3-(4-methyl-3-(trifluoromethyl)phenyl)urea] | 9.17 | 5.1 | 4.03 | 0.228 | 0.024 | 7.88 | 0.765 | 0.248 | 0.087 | > 10 | 3.03
CCC(=O)Nc1cc(Oc2ccc(NC(=O)Cc3ccccc3C(F)(F)F)cc2)ncn1 [Example 47, N-(6-{4-[2-(2-trifluoromethyl-phenyl)-acetylamino]-phenoxy}-pyrimidin-4-yl)-propanamide] | > 10 | 8.35 | > 10 | 0.546 | 0.028 | > 10 | > 10 | 0.089 | 0.142 | > 10 | 3.17
CC(C)C(=O)Nc1cc(Oc2ccc(NC(=O)Cc3ccccc3C(F)(F)F)cc2)ncn1 [Example 49, N-(6-{4-[2-(2-trifluoromethyl-phenyl)-acetylamino]-phenoxy}-pyrimidin-4-yl)-isobutyramide] | > 10 | > 10 | > 10 | 2.58 | 0.059 | > 10 | > 10 | 0.145 | 1.97 | > 10 | 6.11
CC(C)C(=O)Nc1cc(Oc2ccc(NC(=O)Cc3cccc(C(F)(F)F)c3)cc2)ncn1 [Example 50, N-(6-{4-[2-(3-trifluoromethyl-phenyl)-acetylamino]-phenoxy}-pyrimidin-4-yl)-isobutyramide] | > 10 | 0.855 | > 10 | 0.814 | 0.005 | > 10 | 9.22 | 0.007 | 0.206 | > 10 | 2.58
CCCCC(=O)Nc1cc(Oc2ccc(NC(=O)Cc3ccccc3C(F)(F)F)cc2)ncn1 [Example 55, N-(6-{4-[2-(2-trifluoromethyl-phenyl)-acetylamino]-phenoxy}-pyrimidin-4-yl)-valeramide] | > 10 | 4.6 | 7.9 | 0.65 | 0.038 | > 10 | 6.3 | 0.061 | 0.14 | > 10 | 3.9
Cc1ccc(NC(=O)Nc2ccc(Oc3cc(NCCN4CCCC4)ncn3)cc2)cc1C(F)(F)F [Example 122, 1-(4-methyl-3-trifluoromethyl-phenyl)-3-{4-[6-(2-pyrrolidin-1-yl-ethylamino)-pyrimidin-4-yloxy]-phenyl}-urea] | 3.92 | 0.391 | 4.3 | 0.206 | 0.008 | 3.37 | 0.394 | 0.017 | 0.036 | 3.92 | 0.17
Cc1ccc(NC(=O)NC2CCC(Oc3cc(NCCNC(=O)OC(C)(C)C)ncn3)CC2)cc1C(F)(F)F (stereo not drawn) [Example 124, [2-(6-{4-[3-(4-methyl-3-trifluoromethyl-phenyl)-ureido]-cyclohexyloxy}-pyrimidin-4-ylamino)-ethyl]-aminotert-butyl Formate] | 1.54 | 2.56 | 1.92 | 0.694 | 0.15 | 1.17 | 2.27 | 0.18 | 0.149 | 2.8 | 0.89
Cc1ccc(NC(=O)Nc2ccc(Oc3cc(N[C@@H](C)C(=O)O)ncn3)cc2)cc1C(F)(F)F [Example 126, (6-(4-(3-(4-methyl-3-(trifluoromethyl)phenyl)ureido)phenoxy)pyrimidin-4-yl)-L-aminopropionic Acid] | > 10 | 1.66 | 6.38 | 0.797 | 0.14 | > 10 | 4.68 | 0.49 | 0.153 | > 10 | 0.41
Cc1ccc(NC(=O)NC2CCC(Oc3cc(NCCN)ncn3)CC2)cc1C(F)(F)F (stereo not drawn) [Example 128, 1-{4-[6-(2-amino-ethylamino)-pyrimidin-4-yloxy]-cyclohexyl}-3-(4-methyl-3-trifluoromethyl-phenyl)-urea] | 8.73 | 8.47 | 3.87 | 0.15 | 0.11 | > 10 | 0.641 | 0.15 | 0.087 | > 10 | 1.19
COCCNc1cc(Oc2ccc(NC(=O)Nc3ccc(CN4CCN(C)CC4)cc3)cc2)ncn1 [Example 172, 1-{4-[6-(2-methoxy-ethylamino)-pyrimidin-4-yloxy]-phenyl}-3-[4-(4-methyl-piperazin-1-ylmethyl)-phenyl]-urea] | > 10 | > 10 | > 10 | 1.1 | 0.11 | > 10 | > 10 | 0.75 | 0.34 | > 10 | 8.3
CC(=O)Nc1cc(Oc2ccc(NC(=O)Cc3cc(F)cc(F)c3)cc2)ncn1 [Example 173, N-[4-(6-acetylamino-pyrimidin-4-yloxy)-phenyl]-2-(3,5-difluoro-phenyl)-acetamide] | > 10 | 3.6 | > 10 | 0.51 | 0.014 | > 10 | > 10 | 0.039 | 0.092 | > 10 | 1.4
